Test system: Human neonatal primary skin keratinocyte (NHEK) cells
Experiment: psoriasin (AMP marker) secretion by human keratinocytes, ELISA of culture supernatant
Assay type: cell-based
Settings: 72 hours incubation, KGM with 2 mM calcium chloride
Protocol: Step 1: Human neonatal primary skin keratinocyte (NHEK) cells was obtained from Lonza ®. The experiment was done with the above-mentioned cells with passage between 3 and 4. Then, the cells were seeded (35,000 cells/well) in 24 well plate with keratinocyte growth media (KGM) obtained from Invitrogen®. The plate was then incubated at 37±2° C. in a CO2 incubator for 48 hours.
Step 2: After 48 hours of incubation, cell differentiation was induced by replacing media with fresh KGM supplemented with 2 mM calcium chloride solution. This was then followed by incubation at 37±2° C. in a CO2 incubator for 48 hours.
Step 3: After that, the cells were treated with different concentration (as outlined table 1 below) of N-cyclopentyl nicotinamide, with keratinocyte growth media supplemented with 2mM calcium chloride solution:
Step 4: After the above treatment, cells were again incubated at 37±2° C. in a CO2 incubator for 72 hours.
Step 5: After 72 hours of incubation, cell culture supernatant from each well was collected in a sterile tube. The samples were then stored at -80° C. until used for testing psoriasin secretion by standard ELISA technique using psoriasin ELISA kit obtained from Circulx® (No: CY-8073). In the current experiment, psoriasin was used as a marker for AMP.
Step 6: The ELISA method was performed by using 100 μL of cell culture supernatant from each sample.
The data is expressed in terms of fold change over control (no treatment:
Example A). The fold change in psoriasin levels in case of control (example A) is taken to be equal to 1 fold. Any fold change in psoriasin obtained due to treatments outlined in all the other examples was over and above the 1 fold change obtained from the control.

| Compound | Fold Change in psoriasin levels over control (no treatment, Example A = 1) (200 μg/mL) | Fold Change in psoriasin levels over control (no treatment, Example A = 1) (500 μg/mL) | Fold Change in psoriasin levels over control (no treatment, Example A = 1) (400 μg/mL) |
| --- | --- | --- | --- |
| NC(=O)c1cccnc1 [B, Niacinamide] | 0.9 fold | 1.4 fold |  |
| O=C(NC1CCCC1)c1cccnc1 [Example 1, N-cyclopentyl nicotinamide] | 2.06 fold |  | 2.84 fold |
